Several values for one entry are separate records, joined by “and”; a condition that tells them apart may be missing. Equal entries are not always repeated. Numbers after ± are expanded uncertainties.
Assays:
[1] = xn = mol fraction of the nth substance listed; settings: 101 kPa, Liquid; for viscosity: Capillary tube (Ostwald / Ubbelohde) method; for mass density: Vibrating tube method
[2] = 101.33 kPa, Liquid, Capillary tube (Ostwald / Ubbelohde) method

CCCCCC [hexane] + FC(F)(F)C(F)(F)C(F)(F)C(F)(F)C(F)(F)C(F)(F)F
viscosity ([1]; 298 K, x2 = 0): 0.294 ± 0.006 mPa·s
mass density ([1]; 298 K, x2 = 0): 655 ± 1 kg/m3
viscosity ([1]; 303 K, x2 = 0): 0.28 ± 0.006 mPa·s
viscosity ([1]; 308 K, x2 = 0): 0.267 ± 0.006 mPa·s

FC(F)(F)C(F)(F)C(F)(F)C(F)(F)C(F)(F)C(F)(F)F [perfluorohexane] + CCCCCC
viscosity ([1]; 298 K, x1 = 0.243): 0.341 ± 0.008 mPa·s
viscosity ([1]; 298 K, x1 = 0.5): 0.408 ± 0.009 mPa·s and 0.407 ± 0.009 mPa·s
viscosity ([1]; 298 K, x1 = 0.705): 0.458 ± 0.01 mPa·s
viscosity ([1]; 298 K, x1 = 0.727): 0.468 ± 0.01 mPa·s
viscosity ([1]; 298 K, x1 = 0.902): 0.556 ± 0.012 mPa·s
viscosity ([1]; 298 K, x1 = 1): 0.635 ± 0.014 mPa·s
mass density ([1]; 298 K, x1 = 0.25): 956 ± 1 kg/m3
mass density ([1]; 298 K, x1 = 0.5): 1207 ± 1 kg/m3
mass density ([1]; 298 K, x1 = 0.75): 1457 ± 1 kg/m3
mass density ([1]; 298 K, x1 = 1): 1672 ± 1 kg/m3
viscosity ([1]; 303 K, x1 = 0.243): 0.319 ± 0.007 mPa·s
viscosity ([1]; 303 K, x1 = 0.5): 0.375 ± 0.008 mPa·s
viscosity ([1]; 303 K, x1 = 0.705): 0.428 ± 0.009 mPa·s
viscosity ([1]; 303 K, x1 = 0.727): 0.438 ± 0.01 mPa·s
viscosity ([1]; 303 K, x1 = 0.902): 0.52 ± 0.011 mPa·s
viscosity ([1]; 303 K, x1 = 1): 0.589 ± 0.013 mPa·s
viscosity ([1]; 308 K, x1 = 0.243): 0.299 ± 0.007 mPa·s
viscosity ([1]; 308 K, x1 = 0.5): 0.35 ± 0.008 mPa·s and 0.352 ± 0.008 mPa·s
viscosity ([1]; 308 K, x1 = 0.705): 0.401 ± 0.009 mPa·s
viscosity ([1]; 308 K, x1 = 0.727): 0.41 ± 0.009 mPa·s
viscosity ([1]; 308 K, x1 = 0.902): 0.483 ± 0.01 mPa·s
viscosity ([1]; 308 K, x1 = 1): 0.548 ± 0.012 mPa·s

CCCCCC [hexane]
viscosity ([2]; 298.2 K): 0.2937 ± 0.0065 mPa·s
viscosity ([2]; 303.16 K): 0.2798 ± 0.0062 mPa·s
viscosity ([2]; 308.13 K): 0.2669 ± 0.0059 mPa·s
